Numbered stars: 1 amine (or outer) side, 2 acyl side, 3 side chain; on linkers, the order of the positions; unused ones are H or OH. Bridge positions count the residues as written; N and C are the ends. Square brackets hold non-standard residues; d marks the D form. Side chains are listed from the residue outwards. Peptide text beside a SMILES is read from it. I, II: the chains in the order shown. * marks the point of attachment. ξ: configuration not given here. X9 = O=C(O)CN1CCN(CC(=O)O)CCN(CC(=O)NCCCOCCOCCOCCCN*)CCN(CC(=O)O)CC1; Ala(piperidin-4-yl) = O=C([C@H](CC1CCN([*:3])CC1)N[*:1])[*:2]; DOTA = O=C(O)CN1CCN(CC(=O)O)CCN(CC(=O)*)CCN(CC(=O)O)CC1; Trp(5-OMe) = COc1ccc2[nH]cc(C[C@H](N)C(=O)O)c2c1; Phe(4-CF3) = N[C@@H](Cc1ccc(C(F)(F)F)cc1)C(=O)O; Trp(5-F) = N[C@@H](Cc1c[nH]c2ccc(F)cc12)C(=O)O; Trp(7-Me) = Cc1cccc2c(C[C@H](N)C(=O)O)c[nH]c12; Trp(7-aza) = N[C@@H](Cc1c[nH]c2ncccc12)C(=O)O; Phe(4-F) = N[C@@H](Cc1ccc(F)cc1)C(=O)O; γGlu = O=C(O)[C@H](CCC(=O)[*:2])N[*:1]; 2Nal = N[C@@H](Cc1ccc2ccccc2c1)C(=O)O; Nva(3-Et) = CCC(CC)[C@H](N)C(=O)O; ξW = NC(Cc1c[nH]c2ccccc12)C(=O)O; Thr(3ξ) = CC(O)[C@H](N)C(=O)O; Chg = N[C@H](C(=O)O)C1CCCCC1; PEG4 = NCCOCCOCCOCCOCCC(=O)O; Suc = O=C(CCC(=O)[*:2])[*:1]; Aze = O=C(O)[C@@H]1CCN1; ξK = NCCCCC(N)C(=O)O

Here are results for 11 molecules from patent US20250011368A1, “DLL3 TARGETING PEPTIDES AND CONSTRUCTS THEREOF” (MARIANA ONCOLOGY INC., priority 2023, published 2025).

The target of this assay is T1, human DLL3 (Homo sapiens, UniProt Q9NYJ7).
T1 sequence (Q9NYJ7 27-618): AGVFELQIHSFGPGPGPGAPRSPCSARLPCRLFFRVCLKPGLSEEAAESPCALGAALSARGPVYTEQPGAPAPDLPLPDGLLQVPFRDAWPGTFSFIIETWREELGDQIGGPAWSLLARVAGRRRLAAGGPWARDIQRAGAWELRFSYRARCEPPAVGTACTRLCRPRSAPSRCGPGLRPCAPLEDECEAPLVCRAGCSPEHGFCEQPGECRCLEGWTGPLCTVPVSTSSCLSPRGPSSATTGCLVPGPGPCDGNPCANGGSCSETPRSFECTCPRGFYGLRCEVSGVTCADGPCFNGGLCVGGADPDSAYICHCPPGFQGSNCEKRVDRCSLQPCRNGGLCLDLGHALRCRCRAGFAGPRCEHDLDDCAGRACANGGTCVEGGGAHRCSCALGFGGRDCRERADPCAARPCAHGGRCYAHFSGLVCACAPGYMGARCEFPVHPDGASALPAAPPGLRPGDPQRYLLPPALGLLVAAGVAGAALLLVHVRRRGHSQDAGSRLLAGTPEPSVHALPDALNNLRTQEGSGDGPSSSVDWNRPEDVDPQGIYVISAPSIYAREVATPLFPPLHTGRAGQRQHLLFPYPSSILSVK
Put plainly: Affinity determination by Surface Plasmon Resonance (SPR). As to conditions: 25° C., biotinylated human DLL3 immobilized on streptavidin sensor chip, 1:1 binding model; read-out: SPR KD. Type of assay: binding. In a few lines: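 Kinetic and affinity constants were derived by fitting sensorgrams to a 1:1 binding model. Graded compound concentrations flowed at 100 μL/minute in 20 mM phosphate running buffer with 2% DMSO over streptavidin-immobilized biotinylated human DLL3, reference-subtracted.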
Take `CC[C@H](C)[C@H](NC(=O)[C@@H](NC(=O)[C@H](Cc1c[nH]c2ccccc12)NC(C)=O)[C@@H](C)O)C(=O)N[C@H]1CSSC[C@@H](C(=O)N[C@@H](Cc2c[nH]c3ccc(OC)cc23)C(=O)N2CCC[C@H]2C(=O)N[C@H](CCCCNC(=O)CN2CCN(CC(=O)O)CCN(CC(=O)O)CCN(CC(=O)O)CC2)C(N)=O)NC(=O)[C@H](CC(=O)O)NC(=O)[C@H](Cc2cnc[nH]2)NC(=O)[C@H](Cc2c[nH]c3ccccc23)NC(=O)[C@H](CC(N)=O)NC(=O)[C@H](CC(N)=O)NC1=O` [compound 88, Ac-W-T-I-C(3)-N-N-W-H-D-C(3)-(5Ome-W)-P-[D-Lys(DOTA)]-NH2] (Ac-WTICNNWHDC[Trp(5-OMe)]P[dK](DOTA)-NH2; disulfide 4-10): the equilibrium dissociation constant (Kd) is 100 to 300 nM. For the molecule `CC[C@H](C)[C@H](NC(=O)[C@@H](NC(=O)C(Cc1c[nH]c2ccccc12)NC(C)=O)C(C)O)C(=O)N[C@H]1CSSC[C@@H](C(=O)N[C@@H](Cc2c[nH]c3ccccc23)C(=O)N2CCC[C@H]2C(=O)NCCOCCOCCOCCOCCC(=O)N[C@H](CCCCNC(=O)CN2CCN(CC(=O)O)CCN(CC(=O)O)CCN(CC(=O)O)CC2)C(N)=O)NC(=O)[C@H](CC(=O)O)NC(=O)[C@H](Cc2cnc[nH]2)NC(=O)[C@H](Cc2ccc3ccccc3c2)NC(=O)[C@H](CC(N)=O)NC(=O)[C@H](CC(N)=O)NC1=O` (stereo partly drawn) [compound 270, Ac-W-T-I-C(3)-N-N-(2Nal)-H-D-C(3)-W-P-PEG4-[D-Lys(DOTA)]-NH2] (Ac-[ξW][Thr(3ξ)]ICNN[2Nal]HDCWP[PEG4][dK](DOTA)-NH2; disulfide 4-10), the Kd was less than 1 nM. As to `CC[C@H](C)[C@H](NC(=O)[C@@H](NC(=O)[C@H](Cc1c[nH]c2ccccc12)NC(C)=O)[C@@H](C)O)C(=O)N[C@H]1CSSC[C@@H](C(=O)N[C@@H](Cc2c[nH]c3ccccc23)C(=O)N2CCC[C@H]2C(=O)N[C@H](CCCCNC(=O)CNC(=O)[C@H](CO)NC(=O)CNC(=O)[C@H](CO)NC(=O)CNC(=O)[C@H](CO)NC(=O)CN2CCN(CC(=O)O)CCN(CC(=O)O)CCN(CC(=O)O)CC2)C(N)=O)NC(=O)[C@H](CC(=O)O)NC(=O)[C@H](Cc2cnc[nH]2)NC(=O)[C@H](Cc2ccc3ccccc3c2)NC(=O)[C@H](CC(N)=O)NC(=O)[C@H](CC(N)=O)NC1=O` [compound 353, Ac-W-T-I-C(3)-N-N-(2Nal)-H-D-C(3)-W-P-[D-Lys(G-S-G-S-G-S-DOTA)]-NH2] (I: Ac-WTICNN[2Nal]HDCWP[dK]-NH2 / II: {DOTA}-SGSGSG; disulfide I:4-I:10; amide I:13-II:C), the Kd is less than 1 nM.

Consider `CCC(CC)[C@H](NC(=O)[C@@H](NC(=O)[C@H](Cc1c[nH]c2ccccc12)NC(C)=O)[C@@H](C)O)C(=O)N[C@H]1CSSC[C@@H](C(=O)N[C@@H](Cc2c[nH]c3ncccc23)C(=O)N2CCC[C@H]2C(=O)N[C@H](CCCCNC(=O)CCC(=O)NCCCOCCOCCOCCCNC(=O)CN2CCN(CC(=O)O)CCN(CC(=O)O)CCN(CC(=O)O)CC2)C(N)=O)NC(=O)[C@H](CC(=O)O)NC(=O)[C@H](Cc2c[nH]cn2)NC(=O)[C@H](Cc2ccc3ccccc3c2)NC(=O)[C@H](CC(N)=O)NC(=O)[C@H](CC(N)=O)NC1=O` [compound 204, Ac-W-T-(Env)-C(3)-N-N-(2Nal)-H-D-C(3)-(7-Aza-W)-P-[D-Lys(G-G-TTDS-DOTA)]-NH2] (Ac-WT[Nva(3-Et)]CNN[2Nal]HDC[Trp(7-aza)]P[dK]([Suc-X9])-NH2; disulfide 4-10), for which the Kd is less than 1 nM. With `CC[C@H](C)[C@H](NC(=O)[C@@H](NC(=O)C(Cc1c[nH]c2ccccc12)NC(C)=O)C(C)O)C(=O)N[C@H]1CSSC[C@@H](C(=O)N[C@@H](Cc2c[nH]c3ccccc23)C(=O)N2CCC[C@H]2C(=O)N[C@H](CCCCNC(=O)CCOCCOCCOCCOCCNC(=O)CN2CCN(CC(=O)O)CCN(CC(=O)O)CCN(CC(=O)O)CC2)C(N)=O)NC(=O)[C@H](CC(=O)O)NC(=O)[C@H](Cc2cnc[nH]2)NC(=O)[C@H](Cc2ccc3ccccc3c2)NC(=O)[C@H](CC(N)=O)NC(=O)[C@H](CC(N)=O)NC1=O` (stereo partly drawn) [compound 271, Ac-W-T-I-C(3)-N-N-(2Nal)-H-D-C(3)-W-P-[D-Lys(PEG4-DOTA)]-NH2] (Ac-[ξW][Thr(3ξ)]ICNN[2Nal]HDCWP[dK]([PEG4-DOTA])-NH2; disulfide 4-10) the figure was less than 1 nM; with `CC[C@H](C)[C@H](NC(=O)[C@@H](NC(=O)[C@H](Cc1c[nH]c2c(C)cccc12)NC(C)=O)[C@@H](C)O)C(=O)N[C@H]1CSSC[C@@H](C(=O)N[C@@H](Cc2c[nH]c3ccccc23)C(=O)N2CCC[C@H]2C(=O)N[C@H](CCCCNC(=O)CC[C@H](NC(=O)CC[C@H](NC(=O)CC[C@H](NC(=O)CN2CCN(CC(=O)O)CCN(CC(=O)O)CCN(CC(=O)O)CC2)C(=O)O)C(=O)O)C(=O)O)C(N)=O)NC(=O)[C@H](CC(=O)O)NC(=O)[C@H](Cc2cnc[nH]2)NC(=O)[C@H](Cc2ccc3ccccc3c2)NC(=O)[C@H](CC(N)=O)NC(=O)[C@H](CC(N)=O)NC1=O` [compound 207, Ac-(7-Me-W)-T-I-C(3)-N-N-(2Nal)-H-D-C(3)-W-P-[D-Lys(gE-gE-gE-DOTA)]-NH2] (Ac-[Trp(7-Me)]TICNN[2Nal]HDCWP[dK]([γGlu-γGlu-γGlu-DOTA])-NH2; disulfide 4-10), less than 1 nM.

Take `CC[C@H](C)[C@H](NC(=O)[C@@H](NC(=O)[C@H](Cc1c[nH]c2ccccc12)NC(C)=O)[C@@H](C)O)C(=O)N[C@H]1CSSC[C@@H](C(=O)N[C@@H](Cc2c[nH]c3ccccc23)C(=O)N2CCC[C@H]2C(=O)N[C@H](CCCCNC(=O)CN2CCN(CC(=O)O)CCN(CC(=O)O)CCN(CC(=O)O)CC2)C(N)=O)NC(=O)[C@H](CC(=O)O)NC(=O)[C@H](CCC(=O)O)NC(=O)[C@H](Cc2c[nH]c3ccccc23)NC(=O)[C@H](CC(N)=O)NC(=O)[C@H](CCC(=O)O)NC1=O` [compound 273, Ac-W-T-I-C(3)-Glu-N-W-Glu-D-C(3)-W-P-[D-Lys(DOTA)]-NH2] (Ac-WTICENWEDCWP[dK](DOTA)-NH2; disulfide 4-10): the Kd lay within 1 to 10 nM. In the case of `CC[C@H](C)[C@H](NC(=O)[C@@H](NC(=O)[C@H](Cc1c[nH]c2ccccc12)NC(C)=O)[C@@H](C)O)C(=O)N[C@H]1CSSC[C@@H](C(=O)N[C@@H](Cc2ccc3ccccc3c2)C(=O)N2CCC[C@H]2C(=O)N[C@H](CCCCNC(=O)CN2CCN(CC(=O)O)CCN(CC(=O)O)CCN(CC(=O)O)CC2)C(N)=O)NC(=O)[C@H](CC(=O)O)NC(=O)[C@H](Cc2cnc[nH]2)NC(=O)[C@H](Cc2c[nH]c3ccccc23)NC(=O)[C@H](CC(N)=O)NC(=O)[C@H](CC(N)=O)NC1=O` [compound 77, Ac-W-T-I-C(3)-N-N-W-H-D-C(3)-(2Nal)-P-[D-Lys(DOTA)]-NH2] (Ac-WTICNNWHDC[2Nal]P[dK](DOTA)-NH2; disulfide 4-10), the dissociation constant (Kd) fell in the range of 10 to 100 nM. Turning to `CC(=O)N[C@@H](Cc1c[nH]c2ccccc12)C(=O)N[C@H](C(=O)N[C@H](C(=O)N[C@H]1CSSC[C@@H](C(=O)N[C@@H](Cc2c[nH]c3ccccc23)C(=O)N2CCC[C@H]2C(=O)N[C@H](CCCCNC(=O)CN2CCN(CC(=O)O)CCN(CC(=O)O)CCN(CC(=O)O)CC2)C(N)=O)NC(=O)[C@H]([C@@H](C)O)NC(=O)[C@H](Cc2cnc[nH]2)NC(=O)[C@H](Cc2ccc3ccccc3c2)NC(=O)[C@H](CC(N)=O)NC(=O)[C@H](CC2CCNCC2)NC1=O)C1CCCCC1)[C@@H](C)O` [compound 285, Ac-W-T-(Chg)-C(3)-[3-(4-piperidinyl)-Ala]-N-(2Nal)-H-(Thr)-C(3)-W-P-[D-Lys(DOTA)]-NH2] (Ac-WT[Chg]C[Ala(piperidin-4-yl)]N[2Nal]HTCWP[dK](DOTA)-NH2; disulfide 4-10), the Kd is less than 1 nM. Turning to `CC(=O)N[C@@H](Cc1c[nH]c2ccc(F)cc12)C(=O)N[C@H](C(=O)N[C@H](C(=O)N[C@H]1CSSC[C@@H](C(=O)N[C@@H](Cc2c[nH]c3ncccc23)C(=O)N2CC[C@H]2C(=O)N[C@H](CCCCNC(=O)CN2CCN(CC(=O)O)CCN(CC(=O)O)CCN(CC(=O)O)CC2)C(N)=O)NC(=O)[C@H](CC(=O)O)NC(=O)[C@H](Cc2cnc[nH]2)NC(=O)[C@H](Cc2ccc(C(F)(F)F)cc2)NC(=O)[C@H](CC(N)=O)NC(=O)[C@H](CC(N)=O)NC1=O)C1CCCCC1)[C@@H](C)O` [compound 143, Ac-(5Fluoro-W)-T-(Chg)-C(3)-N-N-(4CF3-F)-H-D-C(3)-(7Aza-W)-(Aze)-[D-Lys(DOTA)]-NH2] (Ac-[Trp(5-F)]T[Chg]CNN[Phe(4-CF3)]HDC[Trp(7-aza)][Aze][dK](DOTA)-NH2; disulfide 4-10), the Kd lay within 1 to 10 nM. Consider `CCC(CC)[C@H](NC(=O)[C@@H](NC(=O)[C@H](Cc1c[nH]c2ccc(F)cc12)NC(C)=O)[C@@H](C)O)C(=O)N[C@H]1CSSC[C@@H](C(=O)N[C@@H](Cc2c[nH]c3ncccc23)C(=O)N2CC[C@H]2C(=O)NC(CCCCNC(=O)CN2CCN(CC(=O)O)CCN(CC(=O)O)CCN(CC(=O)O)CC2)C(N)=O)NC(=O)[C@H](CC(=O)O)NC(=O)[C@H](Cc2cnc[nH]2)NC(=O)[C@H](Cc2ccc(F)cc2)NC(=O)[C@H](CC(N)=O)NC(=O)[C@H](CC(N)=O)NC1=O` (stereo partly drawn) [compound 122, Ac-(5Fluoro-W)-T-(Env)-C(3)-N-N-(4Fluoro-F)-H-D-C(3)-(7Aza-W)-(Aze)-[D-Lys(DOTA)]-NH2] (Ac-[Trp(5-F)]T[Nva(3-Et)]CNN[Phe(4-F)]HDC[Trp(7-aza)][Aze][ξK](DOTA)-NH2; disulfide 4-10), for which the Kd lay within 1 to 10 nM.
